Reference: ChEMBL document CHEMBL3091298, “Bis-phosphonium salts of pyridoxine: the relationship between structure and antibacterial activity” (Bioorg Med Chem, 2013)
Values after ≈ are worked out from the molar mass of the structure shown.

Key:
[1] = Genotoxicity in uvrA-deficient Escherichia coli assessed as survival at 1 ug/ml after 6 hrs by DNA-repair test; assay type: toxicity, organism-based; details: read-out: Survival
[2] = Genotoxicity in uvrA-deficient Escherichia coli assessed as survival at 10 ug/ml after 6 hrs by DNA-repair test; assay type: toxicity, organism-based; details: read-out: Survival
[3] = Genotoxicity in uvrA-deficient Escherichia coli assessed as survival at 100 ug/ml after 6 hrs by DNA-repair test; assay type: toxicity, organism-based; details: read-out: Survival
[4] = Genotoxicity in polA-deficient Escherichia coli assessed as survival at 1 ug/ml after 6 hrs by DNA-repair test; assay type: toxicity, organism-based; details: read-out: Survival
[5] = Genotoxicity in polA-deficient Escherichia coli assessed as survival at 10 ug/ml after 6 hrs by DNA-repair test; assay type: toxicity, organism-based; details: read-out: Survival
[6] = Genotoxicity in polA-deficient Escherichia coli assessed as survival at 100 ug/ml after 6 hrs by DNA-repair test; assay type: toxicity, organism-based; details: read-out: Survival
[7] = Genotoxicity in recA-deficient Escherichia coli assessed as survival at 1 ug/ml after 6 hrs by DNA-repair test; assay type: toxicity, organism-based; details: read-out: Survival
[8] = Genotoxicity in recA-deficient Escherichia coli assessed as survival at 100 ug/ml after 6 hrs by DNA-repair test; assay type: toxicity, organism-based; details: read-out: Survival
[9] = Genotoxicity in recA-deficient Escherichia coli assessed as survival at 10 ug/ml after 6 hrs by DNA-repair test; assay type: toxicity, organism-based; details: read-out: Survival
[10] = tested on: Salmonella typhimurium; assay: Mutagenic activity in Salmonella typhimurium TA100 assessed as increase in number of revertants at 1 ug/ml by Ames test relative to solvent control; assay type: toxicity, organism-based; details: salmonella enterica subsp. enterica serovar typhimurium
[11] = tested on: Salmonella typhimurium; assay: Mutagenic activity in Salmonella typhimurium TA100 assessed as increase in number of revertants at 10 ug/ml by Ames test relative to solvent control; assay type: toxicity, organism-based; details: salmonella enterica subsp. enterica serovar typhimurium
[12] = tested on: HEK293; assay: (§1) Cytotoxicity against HEK293 cells after 72 hrs by MTT assay; assay type: cell-based; details: human, hek293, 72 h
[13] = tested on: Salmonella typhimurium; assay: Mutagenic activity in Salmonella typhimurium TA100 assessed as increase in number of revertants at 100 ug/ml by Ames test relative to solvent control; assay type: toxicity, organism-based; details: salmonella enterica subsp. enterica serovar typhimurium
[14] = tested on: Klebsiella pneumoniae; assay: Antibacterial activity against Klebsiella pneumoniae after 18 to 24 hrs; assay type: functional
[15] = tested on: Proteus sp.; assay: Antibacterial activity against Proteus sp. after 18 to 24 hrs; assay type: functional; details: Proteus sp. (in: enterobacteria)
[16] = tested on: Staphylococcus epidermidis; assay: Antibacterial activity against Staphylococcus epidermidis after 18 to 24 hrs; assay type: functional
[17] = tested on: Staphylococcus aureus; assay: Antibacterial activity against Staphylococcus aureus after 18 to 24 hrs; assay type: functional
[18] = as §1; assay type: cell-based; details: human, HEK293 cells

SMILES | MIC [14] | MIC [15] | MIC [16] | MIC [17] | CC50 at 72 h [18] | further results
Cc1nc(C[P+](c2ccccc2)(c2ccccc2)c2ccccc2)c(C[P+](c2ccccc2)(c2ccccc2)c2ccccc2)c2c1OC(C)(C)OC2.[Cl-].[Cl-] | > 1000 µg/mL | > 1000 µg/mL | 5 µg/mL | 5 µg/mL |  | viability at 6 h, 1 ug/ml [1]: 103%; viability at 6 h, 10 ug/ml [2]: 114%; viability at 6 h, 100 ug/ml [3]: 68.9%; viability at 6 h, 1 ug/ml [4]: 114%; viability at 6 h, 10 ug/ml [5]: 112%; viability at 6 h, 100 ug/ml [6]: 59.4%; viability at 6 h, 1 ug/ml [7]: 88.8%; viability at 6 h, 100 ug/ml [8]: 70.1%; viability at 6 h, 10 ug/ml [9]: 79.3%; Ratio [10]: 0.76; Ratio [11]: 0.88; CC50 [12]: 72 µg/mL; Ratio [13]: 0.85
Cc1nc(C[P+](c2ccccc2)(c2ccccc2)c2ccccc2)c(C[P+](c2ccccc2)(c2ccccc2)c2ccccc2)c2c1OC(C)(C)OC2.[Br-].[Br-] | > 1000 µg/mL | > 1000 µg/mL | 2.5 µg/mL | 1.25 µg/mL |  | CC50 [12]: 27.5 µg/mL
Cc1nc(C[P+](c2ccccc2)(c2ccccc2)c2ccccc2)c(C[P+](c2ccccc2)(c2ccccc2)c2ccccc2)c2c1OC(C)(C)OC2.O=[N+]([O-])[O-].O=[N+]([O-])[O-] | 1000 µg/mL | > 1000 µg/mL | 100 µg/mL | 100 µg/mL |  | 
Cc1nc(C[P+](c2ccccc2)(c2ccccc2)c2ccccc2)c(C[P+](c2ccccc2)(c2ccccc2)c2ccccc2)c2c1OC(C)(C)OC2.[I-].[I-] | > 1000 µg/mL | > 1000 µg/mL | 10 µg/mL | 10 µg/mL |  | 
Cc1nc(C[P+](c2ccccc2)(c2ccccc2)c2ccccc2)c(CO)c2c1OC(C)(C)OC2.[Br-] | > 1000 µg/mL | > 1000 µg/mL | 10 µg/mL | 10 µg/mL |  | 
CCCC1OCc2c(C[P+](c3ccccc3)(c3ccccc3)c3ccccc3)c(C[P+](c3ccccc3)(c3ccccc3)c3ccccc3)nc(C)c2O1.[Cl-].[Cl-] (centres undefined) | > 1000 µg/mL | > 1000 µg/mL | 1 µg/mL | 1 µg/mL | 3 µg/mL | viability at 6 h, 1 ug/ml [1]: 113%; viability at 6 h, 10 ug/ml [2]: 116%; viability at 6 h, 100 ug/ml [3]: 64.4%; viability at 6 h, 1 ug/ml [4]: 110%; viability at 6 h, 10 ug/ml [5]: 108%; viability at 6 h, 100 ug/ml [6]: 57.7%; viability at 6 h, 1 ug/ml [7]: 87.8%; viability at 6 h, 100 ug/ml [8]: 80.4%; viability at 6 h, 10 ug/ml [9]: 83.1%; Ratio [10]: 0.91; Ratio [11]: 1.12; Ratio [13]: 1.08
CCCCC1OCc2c(C[P+](c3ccccc3)(c3ccccc3)c3ccccc3)c(C[P+](c3ccccc3)(c3ccccc3)c3ccccc3)nc(C)c2O1.[Cl-].[Cl-] (centres undefined) | 1000 µg/mL | > 1000 µg/mL | 10 µg/mL | 5 µg/mL | 2 µg/mL | 
CCCCCC1OCc2c(C[P+](c3ccccc3)(c3ccccc3)c3ccccc3)c(C[P+](c3ccccc3)(c3ccccc3)c3ccccc3)nc(C)c2O1.[Cl-].[Cl-] (centres undefined) | 1000 µg/mL | > 1000 µg/mL | 5 µg/mL | 5 µg/mL | 1 µg/mL | 
CCCCCCCC1OCc2c(C[P+](c3ccccc3)(c3ccccc3)c3ccccc3)c(C[P+](c3ccccc3)(c3ccccc3)c3ccccc3)nc(C)c2O1.[Cl-].[Cl-] (centres undefined) | 1000 µg/mL | > 1000 µg/mL | 10 µg/mL | 10 µg/mL | 0.5 µg/mL | 
CCCC[P+](CCCC)(CCCC)Cc1nc(C)c2c(c1C[P+](CCCC)(CCCC)CCCC)COC(C)(C)O2.[Cl-].[Cl-] | > 1000 µg/mL | > 1000 µg/mL | 1.25 µg/mL | 1.25 µg/mL | 200 µg/mL | viability at 6 h, 1 ug/ml [1]: 109%; viability at 6 h, 10 ug/ml [2]: 115%; viability at 6 h, 100 ug/ml [3]: 66.1%; viability at 6 h, 1 ug/ml [4]: 112%; viability at 6 h, 10 ug/ml [5]: 118%; viability at 6 h, 100 ug/ml [6]: 57.8%; viability at 6 h, 1 ug/ml [7]: 88.6%; viability at 6 h, 100 ug/ml [8]: 77.8%; viability at 6 h, 10 ug/ml [9]: 82.9%; Ratio [10]: 0.82; Ratio [11]: 1.21; Ratio [13]: 1.04
Cc1nc(C[P+](c2cccs2)(c2cccs2)c2cccs2)c(C[P+](c2cccs2)(c2cccs2)c2cccs2)c2c1OC(C)(C)OC2.[Cl-].[Cl-] | > 1000 µg/mL | > 1000 µg/mL | 100 µg/mL | 100 µg/mL |  | 
Cc1nc2c(c3c1OC(C)(C)OC3)C[P+](c1ccccc1)(c1ccccc1)CC[P+](c1ccccc1)(c1ccccc1)C2.[Cl-].[Cl-] | > 1000 µg/mL | > 1000 µg/mL | 100 µg/mL | 125 µg/mL |  | 
CCCC[P+](CCCC)(CCCC)Cc1nc(C)c(O)c(CO)c1C[P+](CCCC)(CCCC)CCCC.Cl.[Cl-].[Cl-] | > 1000 µg/mL | > 1000 µg/mL | 1000 µg/mL | 1000 µg/mL |  | 
Cc1nc(C[P+](c2cccs2)(c2cccs2)c2cccs2)c(C[P+](c2cccs2)(c2cccs2)c2cccs2)c(CO)c1O.Cl.[Cl-].[Cl-] | > 1000 µg/mL | > 1000 µg/mL | > 1000 µg/mL | 1000 µg/mL |  | 
Cc1nc2c(c(CO)c1O)C[P+](c1ccccc1)(c1ccccc1)CC[P+](c1ccccc1)(c1ccccc1)C2.Cl.[Cl-].[Cl-] | > 1000 µg/mL | > 1000 µg/mL | 500 µg/mL | 500 µg/mL |  | 
CN[C@H](CC(C)C)C(=O)N[C@H]1C(=O)N[C@@H](CC(N)=O)C(=O)N[C@H]2C(=O)N[C@H]3C(=O)N[C@H](C(=O)N[C@H](C(=O)O)c4cc(O)cc(O)c4-c4cc3ccc4O)[C@H](O)c3ccc(c(Cl)c3)Oc3cc2cc(c3O[C@@H]2O[C@H](CO)[C@@H](O)[C@H](O)[C@H]2O[C@H]2C[C@](C)(N)[C@H](O)[C@H](C)O2)Oc2ccc(cc2Cl)[C@H]1O [VANCOMYCIN] | > 1000 µg/mL | > 1000 µg/mL | 2.5 µg/mL (≈ 1.73 µM) | 2.5 µg/mL (≈ 1.73 µM) | > 1000 µg/mL | 

Continued, in another order:

MIC [14] | MIC [15] | MIC [16] | MIC [17] | SMILES | CC50 at 72 h [18] | further results
1000 µg/mL | 1000 µg/mL | 2.5 µg/mL | 2.5 µg/mL | CCCC1OCc2c(C[P+](c3ccc(C)cc3)(c3ccc(C)cc3)c3ccc(C)cc3)c(C[P+](c3ccc(C)cc3)(c3ccc(C)cc3)c3ccc(C)cc3)nc(C)c2O1.[Cl-].[Cl-] (centres undefined) | 1 µg/mL | 
> 1000 µg/mL | > 1000 µg/mL | 10 µg/mL | 10 µg/mL | CCC1OCc2c(C[P+](c3ccccc3)(c3ccccc3)c3ccccc3)c(C[P+](c3ccccc3)(c3ccccc3)c3ccccc3)nc(C)c2O1.[Cl-].[Cl-] (centres undefined) | 4 µg/mL | 
> 1000 µg/mL | > 1000 µg/mL | 5 µg/mL | 10 µg/mL | Cc1nc(C[P+](c2ccccc2)(c2ccccc2)c2ccccc2)c(C[P+](c2ccccc2)(c2ccccc2)c2ccccc2)c2c1OC(C(C)C)OC2.[Cl-].[Cl-] (centres undefined) | 2.57 µg/mL | 
> 1000 µg/mL | > 1000 µg/mL | 10 µg/mL | 12.5 µg/mL | Cc1nc(C[P+](c2ccccc2)(c2ccccc2)c2ccccc2)c(C[P+](c2ccccc2)(c2ccccc2)c2ccccc2)c2c1OC(C)OC2.[Cl-].[Cl-] (centres undefined) | 33.9 µg/mL | 
> 1000 µg/mL | > 1000 µg/mL | 1 µg/mL | 1 µg/mL | Cc1ccc([P+](Cc2nc(C)c3c(c2C[P+](c2ccc(C)cc2)(c2ccc(C)cc2)c2ccc(C)cc2)COC(C)(C)O3)(c2ccc(C)cc2)c2ccc(C)cc2)cc1.[Cl-].[Cl-] | 29.5 µg/mL | 
1000 µg/mL | > 1000 µg/mL | 1.25 µg/mL | 1.25 µg/mL | Cc1cccc([P+](Cc2nc(C)c3c(c2C[P+](c2cccc(C)c2)(c2cccc(C)c2)c2cccc(C)c2)COC(C)(C)O3)(c2cccc(C)c2)c2cccc(C)c2)c1.[Cl-].[Cl-] | 13 µg/mL | 
> 1000 µg/mL | > 1000 µg/mL | 50 µg/mL | 50 µg/mL | Cc1nc(C[P+](c2ccc(F)cc2)(c2ccc(F)cc2)c2ccc(F)cc2)c(C[P+](c2ccc(F)cc2)(c2ccc(F)cc2)c2ccc(F)cc2)c2c1OC(C)(C)OC2.[Cl-].[Cl-] |  | 
> 1000 µg/mL | > 1000 µg/mL | > 1000 µg/mL | > 1000 µg/mL | Cc1ccc([P+](Cc2nc(C)c(O)c(CO)c2C[P+](c2ccc(C)cc2)(c2ccc(C)cc2)c2ccc(C)cc2)(c2ccc(C)cc2)c2ccc(C)cc2)cc1.Cl.[Cl-].[Cl-] |  | 
> 1000 µg/mL | > 1000 µg/mL | 12.5 µg/mL | 12.5 µg/mL | Cc1cccc([P+](Cc2nc(C)c(O)c(CO)c2C[P+](c2cccc(C)c2)(c2cccc(C)c2)c2cccc(C)c2)(c2cccc(C)c2)c2cccc(C)c2)c1.Cl.[Cl-].[Cl-] |  | 
> 1000 µg/mL | > 1000 µg/mL | 1000 µg/mL | 1000 µg/mL | Cc1nc(C[P+](c2ccc(F)cc2)(c2ccc(F)cc2)c2ccc(F)cc2)c(C[P+](c2ccc(F)cc2)(c2ccc(F)cc2)c2ccc(F)cc2)c(CO)c1O.Cl.[Cl-].[Cl-] |  | 
